Patent US20170326106A1, “TREATMENT OF AGE RELATED MACULAR DEGENERATION WITH A SMALL ACTIVE CHOROIDAL NEOVASCULARIZATION LESION” (BAYER HEALTHCARE LLC, priority 2014, published 2017)

Columns and labels:
Type in all cases: in vivo, human
[1] = test system: Chinese subjects with age-related neovascular or wet age-related macular degeneration; assay: Same clinical study, central retinal thickness by optical coherence tomography
Experimental: (§1) A total of 304 Chinese subjects with age-related neovascular or wet age-related macular degeneration were enrolled in a randomized, double-blind clinical study to assess the efficacy of intravitreal (IVT) administrated aflibercept compared with V®-PDT on the mean change in BCVA (Best corrected visual acuity) from baseline to Week 28. BCVA of the study eye was assessed according to the standard procedures developed for the ETDRS (Early Treatment Diabetic Retinopathy Study) adapted for Age Related Eye Disease Study (AREDS). The key inclusion criteria were as follows: • Signed and dated written ICF. • Men and women ≧50 years of age. • Active predominantly classic, subfoveal choroidal neovascularization (CNV) lesions secondary to AMD, including juxtafoveal lesions that affect the fovea, as evidenced by fluorescein angiography (FA), in the study eye. • The area of the CNV had to occupy at least 50% of the total lesion. • ETDRS best corrected visual acuity (BCVA) of 73 to 25 letters in the study eye (Snellen activity equivalent of 20/40 to 20/320 in the study eye).
(§2) The following key exclusion criteria applied for the study eye: • Total lesion size is greater than 12 disc areas (30.5 mm^2, including blood, scars and neovascularization), as assessed by FA • Sub-retinal hemorrhages that is >50% of the total lesion area, or if the blood is under the fovea and is 1 or more disc areas in size. (If the blood is under the fovea, then the fovea must be surrounded by 270 degrees by visible CNV.) • Presence of CNV with an origin other than wAMD. History or clinical evidence of diabetic retinopathy, diabetic macular edema or any retinal vascular disease other than wAMD. Particular attention should be made to exclude subjects with polypoidal choroidal vasculopathy (PCV). • Presence of scar, fibrosis, or atrophy involving the center of the fovea that indicates substantial irreversible vision loss. • Presence of retinal pigment epithelial tears or rips involving the macula.
(§3) Eligible patients were randomized 3:1 to receive aflibercept (VTE) 2Q8 or V®-PDT (228 VTE+76 PDT). 194 patients with active CNV lesions >=50% (147 VTE2Q8+47 PDT) and 106 patients with active CNV lesions <50% (78 VTE2Q8+28 PDT) were included. The lesion size was determined by a central reading center based on the MPS protocol [Macular Photocoagulation Study Group, Arch Ophthalmol 1991, 109:1242-1257]. The active CNV size, the area of CNV (mm^2) as well as the total lesion size was measured using the FA. The central retinal thickness was determined by optical coherence tomography. In the VTE2Q8 group patients were treated with 2 mg (0.05 mL) aflibercept administered intravitreally at baseline, week 4, 8, 16, 24, 32, 40 and 48. […]

[2] = test system: Chinese subjects with age-related neovascular or wet age-related macular degeneration; assay: Randomized double-blind clinical study, BCVA of the study eye by ETDRS
Experimental: as §1, §2
Eligible patients were randomized 3:1 to receive aflibercept (VTE) 2Q8 or V®-PDT (228 VTE+76 PDT). 194 patients with active CNV lesions >=50% (147 VTE2Q8+47 PDT) and 106 patients with active CNV lesions <50% (78 VTE2Q8+28 PDT) were included. The lesion size was determined by a central reading center based on the MPS protocol [Macular Photocoagulation Study Group, Arch Ophthalmol 1991, 109:1242-1257]. The active CNV size, the area of CNV (mm^2) as well as the total lesion size was measured using the FA. The central retinal thickness was determined by optical coherence tomography. In the VTE2Q8 group patients were treated with 2 mg (0.05 mL) aflibercept administered intravitreally at baseline, week 4, 8, 16, 24, 32, 40 and 48. In the PDT group V®-PDT was performed at baseline and potential PDT retreatment according to the guidelines for the use of PDT treatment in wAMD [Verteporfin Roundtable Participants, Retina. 2005; 25(2):119-34] were performed at week 12 and 24. At Week 28, after assessment of the primary and secondary endpoints, subjects in the PDT→VEGF Trap-Eye group received an IVT injection of 2.0 mg VEGF Trap-Eye, followed by additional 2.0 mg VEGF Trap-Eye injections at Weeks 32, 36, 40, and 48.

[3] = test system: Chinese subjects with age-related neovascular or wet age-related macular degeneration; assay: Same clinical study, CNV lesion size by fluorescein angiography (MPS protocol)
Experimental: as §1, §2, §3

[4] = active CNV lesion <50%, week 28
[5] = active CNV lesion <50%, week 52, PDT group on VEGF Trap-Eye from week 28
[6] = active CNV lesion >=50%, week 28
[7] = active CNV lesion >=50%, week 52, PDT group on VEGF Trap-Eye from week 28

Substance: Aflibercept [VTE2Q8]
- Mean change in central retinal thickness [1, 4]: −180.6 um
- Mean change in central retinal thickness [1, 5]: −185.5 um
- Mean change in central retinal thickness [1, 6]: −180.4 um
- Mean change in central retinal thickness [1, 7]: −192.1 um
- Mean change of BCVA ([2]; active CNV lesion <50% of total lesion size, week 28, from baseline): 16.7 letters
- Mean change of BCVA ([2]; active CNV lesion <50% of total lesion size, week 28, from baseline, listed as aflibercept): 16.7 (−21 to 59) letters
- Mean change of BCVA ([2]; active CNV lesion <50% of total lesion size, week 52, from baseline, PDT group received IVT 2.0 mg VEGF Trap-Eye from week 28): 18.1 letters
- Proportion of patients who gained 5 or more letters [2, 4]: 85.9%
- Proportion of patients who gained 10 or more letters [2, 4]: 73.1%
- Proportion of patients who gained 15 or more letters [2, 4]: 57.7%
- Proportion of patients who lost 5 or more letters [2, 4]: 5.1%
- Proportion of patients who lost 10 or more letters [2, 4]: 3.8%
- Proportion of patients who lost 15 or more letters [2, 4]: 2.6%
- Proportion of patients who maintained vision (letter loss <15 letters) [2, 4]: 97.4%
- Proportion of patients who gained 5 or more letters [2, 5]: 88.5%
- Proportion of patients who gained 10 or more letters [2, 5]: 78.2%
- Proportion of patients who gained 15 or more letters [2, 5]: 69.2%
- Proportion of patients who lost 5 or more letters [2, 5]: 6.4%
- Proportion of patients who lost 10 or more letters [2, 5]: 3.8%
- Proportion of patients who lost 15 or more letters [2, 5]: 3.8%
- Proportion of patients who maintained vision (letter loss <15 letters) [2, 5]: 96.2%
- Mean change of BCVA ([2]; active CNV lesion >=50% of total lesion size, week 28, from baseline): 12.7 letters
- Mean change of BCVA ([2]; active CNV lesion >=50% of total lesion size, week 28, from baseline, listed as aflibercept): 12.7 (−29 to 40) letters
- Mean change of BCVA ([2]; active CNV lesion >=50% of total lesion size, week 52, from baseline, PDT group received IVT 2.0 mg VEGF Trap-Eye from week 28): 14.0 letters
- Proportion of patients who gained 5 or more letters [2, 6]: 77.6%
- Proportion of patients who gained 10 or more letters [2, 6]: 66.7%
- Proportion of patients who gained 15 or more letters [2, 6]: 45.6%
- Proportion of patients who lost 5 or more letters [2, 6]: 6.8%
- Proportion of patients who lost 10 or more letters [2, 6]: 2.7%
- Proportion of patients who lost 15 or more letters [2, 6]: 0.7%
- Proportion of patients who maintained vision (letter loss <15 letters) [2, 6]: 99.3%
- Proportion of patients who gained 5 or more letters [2, 7]: 78.9%
- Proportion of patients who gained 10 or more letters [2, 7]: 67.3%
- Proportion of patients who gained 15 or more letters [2, 7]: 53.1%
- Proportion of patients who lost 5 or more letters [2, 7]: 8.2%
- Proportion of patients who lost 10 or more letters [2, 7]: 4.1%
- Proportion of patients who lost 15 or more letters [2, 7]: 2.0%
- Proportion of patients who maintained vision (letter loss <15 letters) [2, 7]: 98.0%
- mean change from baseline BCVA letter score ([2]; whole study population irrespective of the active CNV lesion size, week 28, range in brackets): 14.0 (−29 to 59)
- Mean change in CNV lesion size [3, 4]: −0.688 mm^2
- Mean change in CNV lesion size [3, 5]: −0.688 mm^2
- Mean change in CNV lesion size [3, 6]: −1.009 mm^2
- Mean change in CNV lesion size [3, 7]: −1.173 mm^2
